Activity calls are given as the source filed them. The rule behind the calls is not given here.
Columns and labels:
P388 = test: Antitumor activity against mouse P388 cells allografted in mouse relative to control; type: functional
L1210 = test: Antitumor activity against mouse L1210 cells allografted in mouse relative to control; type: functional, cell-based

Compound | Activity (P388) | Activity (L1210) | T/C (P388)
CC(=O)N1C(=O)NC(c2ccc(Cl)cc2)(c2ccc(Cl)cc2)C1=O | inactive | inactive | –
O=C1NC(=O)C(c2cccs2)(c2cccs2)N1 | – | inactive | –
CC1(c2cccs2)C(=O)N(Cl)C(=O)N1Cl (centres undefined) | – | inactive | –
CN1C(=O)NC(C)(c2cccs2)C1=O (centres undefined) | – | inactive | –
CC(=O)N1C(=O)NC(=O)C1(C)c1ccco1 (centres undefined) | – | inactive | –
O=C1NC(=O)C(c2ccc(Cl)cc2)(c2ccc(Cl)cc2)N1 | – | inactive | –
CC(=O)N1C(=O)NC(=O)C1(c1ccc(Cl)cc1)c1ccc(Cl)cc1 | inactive | inactive | –
O=C1N(Cl)C(=O)C(c2ccc(C(F)(F)F)cc2)(c2ccc(C(F)(F)F)cc2)N1Cl | inactive | inactive | –
CC(=O)N1C(=O)N(Cl)C(=O)C1(c1ccc(Cl)cc1)c1ccc(Cl)cc1 | inactive | inactive | –
CC1(c2ccco2)NC(=O)NC1=O (centres undefined) | – | inactive | –
CC(=O)N1C(=O)NC(=O)C1(C)c1ccc(Cl)s1 (centres undefined) | – | inactive | –
CC(=O)N1C(=O)NC(=O)C1(C)c1cccs1 (centres undefined) | – | inactive | –
CC1(c2cccs2)NC(=O)N(Cl)C1=O (centres undefined) | – | inactive | –
CC(=O)N1C(=O)N(Cl)C(=O)C1(C)c1cccs1 (centres undefined) | – | inactive | –
O=C1NC(=O)C(c2ccc(C(F)(F)F)cc2)(c2ccc(C(F)(F)F)cc2)N1 | inactive | inactive | –
O=C1NC(=O)C2(CSSC2)N1 | – | inactive | –
CC1(c2ccco2)NC(=O)N(Cl)C1=O (centres undefined) | – | inactive | –
CC1(c2ccc(Cl)s2)NC(=O)NC1=O (centres undefined) | – | inactive | –
O=C(CCl)N1C(=O)NC(c2ccc(Cl)cc2)(c2ccc(Cl)cc2)C1=O | inactive | inactive | –
CC1(c2cccs2)NC(=O)NC1=O (centres undefined) | – | inactive | –
CC1(c2cccs2)NC(=O)N(C(=O)CCl)C1=O (centres undefined) | – | inactive | –
O=C1N(Cl)C(=O)C(c2ccc(Cl)cc2)(c2ccc(Cl)cc2)N1Cl | – | inactive | 190%
CN1C(=O)NC(c2ccc(Cl)cc2)(c2ccc(Cl)cc2)C1=O | inactive | inactive | –
CC1(c2ccco2)NC(=O)N(C(=O)CCl)C1=O (centres undefined) | – | inactive | –
CC1(c2ccc(Cl)s2)C(=O)N(Cl)C(=O)N1Cl (centres undefined) | – | inactive | –
O=C1NC(c2cccs2)(c2cccs2)C(=O)N1Cl | – | inactive | –

Reference: ChEMBL document CHEMBL3243990, “Hydantoins as antitumor agents” (1977)
